Results: US6593365B1, “Diflunisal esters and related compounds” (The University of Queensland, priority 1997, dated 2003)
Entries after “also recorded” stand apart in the source; their conditions may differ.

Tests used:
[1] = test system: platelets (platelet cyclooxygenase acylation); assay: Platelet washing study (ADGS); assay type: cell-based, human; conditions: platelet-rich plasma pretreated with drug at 37° C.; 200 μM arachidonic acid; before/after two-fold washing
Description: It is generally accepted that aspirin inhibits platelet cyclooxygenase through an irreversible acetylation process. In separate experiments, the platelet acylation by these O-acyl salicylates was investigated. It is hypothesised that if the acylation were reversible, then the O-acyl moieties might be removed by platelet washing. Consequently, the washed platelets would become susceptible to aggregation by arachidonic acid.
A platelet-washing technique, ADGS (albumin density gradient separation) similar to one used by Spriggs and Alexander (Spriggs, 1960, Nature 188 863), was employed for this purpose. The principle underlying ADGS is simply that of centrifuging platelets into a continuous density gradient produced by mixing the interface between platelet-rich plasma and 40-45% bovine serum albumin. Thereby the platelets are gently sedimented into a zone with a specific gravity equal to their own, and they are protected by the cushion of albumin from disruptive squashing on the hard surface of the centrifuge tube.
Flat-bottomed, polystyrene tubes of 10 mL capacity with stopper were used for platelet washing by ADGS. Pasteur pipettes were siliconised and used for transferring plasma and wash fluid. Stirring rods were made from Pasteur pipettes by heating the tips, forming a right-angle ben approximately 1 cm long and then siliconised. […]

[2] = cited from earlier work
[3] = at 25° C. (Foye 1989); cited from earlier work

Molecule | Platelet response to arachidonic acid after pretreatment (platelet washing study) [1] | solubility ([2]; at 25° C., The Merck Index 1983) [mM] | Maximum solubility ([2]; water, 25° C., literature value (Merck Index)) [mM] | pKa [3]
CCCCCC(=O)Oc1ccccc1C(=O)O [Compound C6SA, n-hexanoylsalicylic acid] | non-reversibly inhibited; also recorded: still refractory to arachidonic acid |  |  | 
O-acetylsalicylic acid [Compound C2SA, reference compound] | non-reversibly inhibited; also recorded: still refractory to arachidonic acid | 18.5 | 18.5 | 3.5
